Reference: patent US20080103127A1, “METHODS FOR TREATING DISRUPTIVE BEHAVIOR DISORDERS” (priority 2006, published 2008)

Tests used:
submissive rats [1] = assay: Reduction of Submissive Behavior Model (RSBM) of depression, dominant-submissive rat food competition test; format: in vivo, Sprague-Dawley rats
From the text: In this study, the effects of COMPOUND #7 on dominant or submissive behavior in pairs of rats competing for food are examined. It has been shown that anti-manic drugs, including anticonvulsants, decrease dominance and antidepressant drugs reduce submissiveness. This model uses dominant behavior as a model of mania and submissive behavior as a model of depression. The dominance and submissiveness is defined in a competition test and measured as the relative success of two food-restricted rats to gain access to a feeder. Rats are randomly paired and placed in an apparatus allowing them to compete for a food reward. The dominant-submissive relationship develops over a 2-week period. The submissive or dominant animals in pairs selected after 2 weeks of training were treated orally […] (b.i.d.) with COMPOUND #7 at 3 or 30 mg/kg for 5 weeks. The partner of the drug-treated animal was treated with vehicle.
The objective of this study was to determine if COMPOUND #7 is active in the Reduction of Submissive Behavior Model (RSBM) of depression and the Reduction of Dominant Behavior Model (RDBM) of mania. Measurements were made at two doses (3 and 30 mg/kg) after oral twice a day (b.i.d.) administration. The effect of the drug in the RSBM was compared to the effect of fluoxetine (10 mg/kg) and vehicle (0.5% methylcellulose). The effect of the drug in the RDBM was compared with the effect of lithium (100 mg/kg) and vehicle (0.5% methylcellulose). The endpoints measured were the development of a significant reduction of submissive or dominant behavior and its time of onset.
The DSR developed by two rats competing for food uses the apparatus in FIG. 1. The methodology and equipment are described in several publications. (See, Malatynska E, Goldenberg R, Shuck L, Haque A, Zamecki P, Crites G, Schindler N, Knapp R J. Reduction of submissive behavior in rats: a test for antidepressant drug activity. Pharmacology 2002; 64:8; Malatynska E, Rapp R, Crites G. Dominant behavior measured in a competition test as a model of mania. In: International Behavioral Neuroscience Society Meeting, ed. IBNSCapri, Italy, 2002, p 26.; Bonnet U. Moclobemide: therapeutic use and clinical studies. CNS Drug Rev 2003; 9:97; Danysz W, Plaznik A, Kostowski W, Malatynska E, Jarbe T U, Hiltunen A J, Archer T. Comparison of desipramine, amitriptyline, zimeldine and alaproclate in six animal models used to investigate antidepressant drugs. Pharmacol Toxicol 1988; 62:42; Knapp R J, Goldenberg R, Shuck C, Cecil A, Watkins J, Miller C, Crites G, Malatynska E. Antidepressant activity of memory-enhancing drugs in the reduction of submissive behavior model. Eur J Pharmacol 2002; 440:27; Kostowski W, Malatynska E, Plaznik A, Dyr W, Danysz W. Comparative studies on antidepressant action of alprazolam in different animal models. Pol J Pharmacol Pharm 1986; 38, 471; Malatynska E, De Leon I, Allen D, Yamamura Hi. Effects of amitriptyline on GABA-stimulated ^36Cl^− uptake in relation to a behavioral model of depression. Brain Res Bull 1995; 37:53; Malatynska E, Kostowski W. The effect of antidepressant drugs on dominance behavior in rats competing for food. Pol J Pharmacol Pharm 1984; 36:531; Malatynska E, Kostowski W. Desipramine antagonizes clonidine-induced suppression of dominance in rats: possible involvement of amygdaloid nuclei. Pol J Pharmacol Pharm 1988; 40:357).
In the experiments described in this report Sprague-Dawley rats weighing 160 to 180 g were used. Testing for the development of a DSR between paired rats begins with the random assignment of rats into pairs. Rats from pairs are housed separately between test sessions with other animals in groups of four. The animals are food-deprived overnight with free access to water.
The test involves placing each member of a pair in opposite chambers of the testing apparatus. These chambers are connected through a narrow tunnel with a small container of sweetened milk at the center. […]

dominant rats = conditions: administered to dominant rats; cited from earlier work
submissive rats [2] = conditions: cited from earlier work; for submissive behavior: treatment of the submissive subject for 3 weeks

SMILES | competitive behavior of dominant rats (dominant rats) | submissive behavior (submissive rats [2]) | further results
CC(N)Cc1ccccc1 (stereo not shown) [amphetamine, reference compound] |  |  | effect of treatment of submissive rats (psychostimulant) (submissive rats [1]; unpublished observation): ineffective
NC(=O)N1c2ccccc2C=Cc2ccccc21 [carbamazepine] | significantly reduced competitive behavior |  | 
Clc1cccc(Cl)c1N=C1NCCN1 [clonidine] | significantly reduced competitive behavior |  | 
CNCCCN1c2ccccc2CCc2ccccc21 [desipramine] |  | reduced submissive behavior | effect on submissive behavior after cessation of treatment (submissive rats [2]; after cessation of treatment): attenuated
CN1C(=O)CN=C(c2ccccc2)c2cc(Cl)ccc21 [diazepam] |  |  | effect of treatment of submissive rats (anxiolytic) (submissive rats [2]; Pharmacology 2002, 64:8): ineffective
CNCCC(Oc1ccc(C(F)(F)F)cc1)c1ccccc1 (stereo not shown) [fluoxetine, reference compound] |  | reduced submissive behavior | onset of significant effect on submissive rats (time of treatment) (submissive rats [1]; 10 mg/kg i.p. once a day, previous experimental set): 3 weeks
CN(C)CCCN1c2ccccc2CCc2ccccc21 [imipramine] |  | reduced submissive behavior | 
CCCC(CCC)C(=O)[O-].[Na+] [sodium valproate] | significantly reduced competitive behavior |  | 
